Assay results taken from PMC6980330 (Steroids, 2019).

Target: T1, vitamin D receptor (VDR) (Homo sapiens, UniProt P11473)
T1 sequence (P11473 118-427 limits assumed): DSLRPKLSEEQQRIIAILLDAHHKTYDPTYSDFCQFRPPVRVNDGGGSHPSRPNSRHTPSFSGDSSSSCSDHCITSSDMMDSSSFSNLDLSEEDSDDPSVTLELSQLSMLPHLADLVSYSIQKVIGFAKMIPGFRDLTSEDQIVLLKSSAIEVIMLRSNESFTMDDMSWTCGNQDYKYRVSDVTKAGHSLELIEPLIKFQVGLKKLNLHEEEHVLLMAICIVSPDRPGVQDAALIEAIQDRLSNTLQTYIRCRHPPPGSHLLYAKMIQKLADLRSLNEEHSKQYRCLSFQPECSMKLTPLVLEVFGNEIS
Format: binding

IC50: 71.2 µM
SMILES: C=C1CC[C@H](O)C/C1=C/C=C1\CCC[C@]2(C)[C@@H]([C@H](C)CC(=O)O)CC[C@@H]12 [compound 13, calcioic acid]
